The numbers were not newly measured in patent US20060257434A1, “Production of emulsions of pharmaceutical compositions” (priority 2005, published 2006), which cites them from elsewhere.

The conditions of the series: over a physiological pH range.

Regarding `CCCn1c(=O)c2[nH]c(C34CC5CC(CC3C5)C4)nc2n(CCC)c1=O` [KW-3902, 8-(3-noradamantyl)-1,3-dipropylxanthine], the solubility result was “less than 1 μg/ml”.
